Measurements taken from patent publication US4626283A, “Corrosion and marine growth inhibiting compositions” (Engelhard Corporation, priority 1985, dated 1986).
“And” between values parts separate entries of the source, which are not always exact repeats. Equal values may be shown once. Read-outs that look alike come from different tables or passages of the source.

Tests used:
[1] = water
[2] = Salt spray test, alkyd formulations (Example VI, FIG. 3); conditions: alkyd formulation, ASTM B117-73, in words
Method: One coat of paint was applied using a Henry K. Gardner Laboratory draw-down, with either a 6 mil or 8 mil draw-down blade. The draw-down speed was 1 inch per second. Such coat of paint was allowed to cure for two weeks under ambient conditions, in the case of both alkyd and latex paints. The dried coating thickness was measured with Elcometer Coating thickness gauge, Model #150/-FNIE. Acceptable thicknesses of the cured film were 2.5-3.5 mils.
Stormer viscosity (ASTM D562-55) for all alkyd paints was greater than 90, and for all latex paints was greater than 80.

[3] = Primary skin irritation; format: in vivo; conditions: 0.5 g in saline paste; for Skin irritation rating: in words
[4] = Electrochemical testing (Tafel Plot) of corrosion current and corrosion potential
[5] = Acute oral toxicity; format: in vivo; conditions: 5 g/kg in corn oil
[6] = Draize eye irritation; format: in vivo; conditions: 100 mg; for Eye irritation rating: in words
[7] = Salt spray test, alkyd formulations (Example V, FIG. 1)
[8] = format: physicochemical; conditions: simulated rain solution saturated with the pigment; electrolyte pH about 4.2
[9] = overall conclusion in words
[10] = Tafel Plot, simulated acid rain saturated with pigment, SAE-1020 steel, 5.16 square centimeters
[11] = against saturated calomel electrode, simulated acid rain saturated with pigment

NCCN.O=C([O-])CCCC(=O)[O-].[Zn+2] [Compound 2, Zinc Glutarate Ethylenediamine]
Solubility [1]: .16
Solubility description [1]: SS (key: PINS: practically insoluble (<.1 g/100cc H2 O); SS: slightly soluble (.1 to 1 g/100cc H2 O); MS: moderately soluble)

NCCN.O=C([O-])CCCCC(=O)[O-].[Zn+2] [Compound 3, Zinc Adipate Ethylenediamine]
Salt spray durability, comparison [2]: superior to "Zinc Yellow" (zinc chromate) in salt spray durability
Skin irritation score [3]: 0.42
Skin irritation rating [3]: minimally irritating
Corrosion current (Icorr) [4, 10]: 78 microamps
mortality ([5]; in vivo, 5000 mg/kg): 0%
Eye irritation score [6]: 19.0
Eye irritation rating [6]: moderately-irritating

CC(N)CN.O=C([O-])CCCCC(=O)[O-].[Zn+2] [Compound 4, Zinc Adipate Propylenediamine]
Salt spray durability, comparison [2]: superior to "Zinc Yellow" (zinc chromate) in salt spray durability

NCCN.O=C([O-])CCCCCCCC(=O)[O-].[Zn+2] [Compound 5, Zinc Azelate Ethylenediamine]
Corrosion current (Icorr) [4, 10]: 82 microamps
Corrosion potential (Ecorr) [4, 11]: -667 millovolts
Solubility [1]: .21
Solubility description [1]: SS (key: PINS: practically insoluble (<.1 g/100cc H2 O); SS: slightly soluble (.1 to 1 g/100cc H2 O); MS: moderately soluble)
Effect of kaolin on salt spray performance ([7]; alkyd formulation, combination with kaolin, in words): anomolously reduced the performance

NCCN.O=C([O-])CCCCCCCCC(=O)[O-].[Zn+2] [Compound 6, Zinc Sebacate Ethylenediamine]
Skin irritation score [3]: 0.13
Skin irritation rating [3]: minimally irritating
Corrosion current (Icorr) [4]: 170 microamps and > 100 microamps
Corrosion potential (Ecorr) [4]: -462 millovolts
Eye irritation score [6]: 37.2
Eye irritation rating [6]: severely irritating

O=C([O-])CCCCCCCCCCC(=O)[O-].OCCN(CCO)CCO.[Zn+2] [Compound 10, Zinc Dibasate Triethanolamine]
Salt spray durability, comparison [2]: superior to "Zinc Yellow" (zinc chromate) in salt spray durability
Corrosion current (Icorr) [4]: 93 microamps
Corrosion potential (Ecorr) [4]: -580 millovolts

NCCN.O=C([O-])CCCCCCCCCCC(=O)[O-].[Zn+2] [Compound 11, Zinc Dodecanedioate Ethylenediamine]
Salt spray durability, comparison [2]: superior to "Zinc Yellow" (zinc chromate) in salt spray durability
Corrosion current (Icorr) [4, 10]: 130 microamps and > 100 microamps
Solubility [1]: .015
Solubility description [1]: PINS (key: PINS: practically insoluble (<.1 g/100cc H2 O); SS: slightly soluble (.1 to 1 g/100cc H2 O); MS: moderately soluble)

CCNCC.O=C([O-])CCCCCCCCCCC(=O)[O-].[Zn+2] [Compound 12, Zinc Dodecanedioate Diethylamine]
Corrosion current (Icorr) [4]: 197 microamps and > 100 microamps

NCCN.O=C([O-])c1ccccc1C(=O)[O-].[Zn+2] [Compound 17, Zinc Phthalate Ethylenediamine]
Skin irritation score [3]: 0.00
Skin irritation rating [3]: non-irritating
Corrosion current (Icorr) [4]: 83 microamps
Solubility [1]: .02
Solubility description [1]: PINS (key: PINS: practically insoluble (<.1 g/100cc H2 O); SS: slightly soluble (.1 to 1 g/100cc H2 O); MS: moderately soluble)

NCCN.O=C([O-])c1cccc(C(=O)[O-])c1.[Zn+2] [Compound 18, Zinc Isophthalate Ethylenediamine]
Salt spray durability, comparison [2]: superior to "Zinc Yellow" (zinc chromate) in salt spray durability
Solubility [1]: 1.13

NCCN.O=C([O-])c1ccc(C(=O)[O-])cc1.[Zn+2] [Compound 19, Zinc Terephthalate Ethylenediamine]
Solubility [1]: .66
Solubility description [1]: SS (key: PINS: practically insoluble (<.1 g/100cc H2 O); SS: slightly soluble (.1 to 1 g/100cc H2 O); MS: moderately soluble)

Zinc Dibasate Diethylamine [Compound 9]
Corrosion current (Icorr) [4]: 30 microamps
Corrosion current (Icorr), second test [4]: 177 microamps and > 100 microamps
Corrosion potential (Ecorr) [4]: -570 millovolts
Oral acute toxicity, mortality [5]: 0%
Eye irritation score [6]: 5.5
Eye irritation rating [6]: mildly irritating

Zinc Dibasate Dimethylamine [Compound 21]
Corrosion current (Icorr) [4]: 82 microamps
Corrosion potential (Ecorr) [4]: -610 millovolts

Zinc Dibasate Piperidine [Compound 24]
Corrosion current (Icorr) [4]: 40 microamps
Corrosion potential (Ecorr) [4]: -610 millovolts

Zinc Dibasate Propylenediamine [Compound 8]
Solubility [1]: .16
Solubility description [1]: SS (key: PINS: practically insoluble (<.1 g/100cc H2 O); SS: slightly soluble (.1 to 1 g/100cc H2 O); MS: moderately soluble)

Zinc Dibasate Pyridine [Compound 23]
Corrosion current (Icorr) [4, 10]: 60 microamps
Corrosion potential (Ecorr) [4, 11]: -550 millovolts
pH [8]: 7.0

Zinc Dibasate-1,2-Diaminopropane [8^(3)]
Corrosion current (Icorr) [4, 10]: 90 microamps
Corrosion potential (Ecorr) [4, 11]: -570 millovolts
pH [8]: 7.55

Zinc Quinizarinate Ethylenediamine [Compound 22]
Corrosion current (Icorr) [4, 10]: 84 microamps
Corrosion potential (Ecorr) [4, 11]: -570 millovolts

Zinc Sulfonyldiphenolate Ethylenediamine [Compound 15]
Skin irritation score [3]: 0.08
Skin irritation rating [3]: non-irritating
Corrosion current (Icorr) [4]: 170 microamps and > 100 microamps
Corrosion potential (Ecorr) [4]: -592 millovolts
Eye irritation score [6]: 31.0
Eye irritation rating [6]: severely irritating

Zinc Thiodiphenolate Ethylenediamine [Compound 14]
Corrosion current (Icorr) [4]: 52.5 microamps
Corrosion potential (Ecorr) [4]: -570 millovolts
Toxicity characteristics [9]: unacceptable toxicity characteristics
Eye irritation score [6]: 53.7
Eye irritation rating [6]: extremely irritating
Effect of kaolin on salt spray performance [7]: enhanced the performance

Zinc Thiodiphenolate Propylenediamine [Compound 20]
Corrosion current (Icorr) [4]: 46 microamps
Corrosion potential (Ecorr) [4]: -560 millovolts
